# Measurements as given in patent publication US4973545A, “Photographic couplers with aryloxysilyl groups” (Eastman Kodak Company, priority 1988, dated 1990).
# How the values were obtained:
# Format in all cases: physicochemical
# [1] = Spectrophotometric testing: dye hue (λmax and half-bandwidth); conditions: dye image, density about 1.0, C41 processing
# Protocol: (§1) Each coupler of the invention and each comparison coupler was dissolved in half its weight of tricresylphosphate as the coupler solvent using 2-(2-butoxyethoxy)ethyl acetate as the auxiliary solvent. The coupler was dispersed in a gelatin solution and the auxiliary solvent was removed by evaporation under reduced pressure.
# (§2) Experimental photographic coatings were prepared by coating a cellulose acetate film support with a photosensitive layer comprising a dispersion of the coupler as formulated above coated at a laydown of 1.04 mmol m^-2, a silver chlorobromide emulsion at 1.61 gm^-2 Ag, gelatin at 2.42 gm^-2 and a hardener at 0.06 gm^-2. An overcoat containing gelatin at 1.5 gm^-2 was applied to the photosensitive layer.
# (§3) The dried experimental coating was then slit and chopped into test strips.
# (§4) The test strips were exposed through a neutral density step-wedge test object. The strips were then processed through a standard C41 processing cycle as described in the British Journal of Photographic Annual 1977, pages 204-5. The processed strips were then dried to give stepped dye images.
# (§5) Test strips were exposed as above through a step-wedge test object and appropriate filters to give to give an optical density of about 1.0. The strips were processed using the standard conditions described above and samples cut from the dye image step with density closest to 1.0. Visible absorption spectra (normalized to 1.0 density) were obtained using a spectrophotometer.
# Dye hues are expressed in terms of the wavelength corresponding to the maximum absorption peak (λmax) and the half-bandwidth (HBW) calculated from the spectrophotometric curves.
# (§6) In the following Examples, Couplers 1 to 6 are as defined above. Comparison Couplers C-1 to C-6 have the same structures as Couplers 1 to 6, respectively, except that the silyl group is replaced by a hydrogen atom. For example, Coupler C-1 has the structure depicted by Formula I wherein Q=C1 and R=H.
# [2] = Solubility of the coupler in di-n-butylphthalate coupler solvent (dye dispersibility)
# From the text: as §6
# [3] = Dye stability testing: dark keeping, dark/wet fade; conditions: dye image from coupler, dark oven, 60° C., 70% relative humidity, fractional density change at absorption maximum
# Protocol: as §1, §2, §3, §4, §5
# Dye sample patches having a density of about 1.0 were prepared as for spectrophotometric testing and their absorption spectram measured as above.
# […] The spectrophotometric curves of the samples were then remeasured and the degree of fade quoted as the fractional decrease in density at the absorption maximum relative to the initial density prior to fading. The results are presented as dark/wet fade data.
# as §6
"Solubility ([2]; 20 mg in 1 ml di-n-butylphthalate, 2 min on steam bath at 80° C.)","Solubility ([2]; 40 mg in 1 ml di-n-butylphthalate, 6 min on steam bath at 80° C.)","Solubility ([2]; 100 mg in 1 ml di-n-butylphthalate, 6 min on steam bath at 80° C.)",Compound,HBW (half-bandwidth) of dye absorption [1],λmax of dye [1],"Solubility ([2]; 80 mg in 0.05 ml di-n-butylphthalate, 1 min on steam bath at 80° C.)","Solubility ([2]; 80 mg in 0.1 ml di-n-butylphthalate, 1 min on steam bath at 80° C.)","Solubility relative to Coupler C-1 ([2]; compared with Coupler C-1 under these conditions (di-n-butylphthalate, steam bath 80° C.))","Dark/Wet Fade, 1 wk [3]","Dark/Wet Fade, 3 wk [3]",Dark/Wet Fade [3]
,,,CCCCCCCCCCC(Oc1ccc(S(=O)(=O)c2ccc(O[Si](C)(C)C(C)(C)C)cc2)cc1)C(=O)Nc1ccc(CCCc2n[nH]c3c(Cl)c(C)nn23)cc1 (stereo not drawn) [Coupler 1],86.5 nm,548.5,soluble,soluble,greater than ten times more soluble,+0.02,0.00,+0.01
,,,CCCCCCCCCCCCC(Oc1ccc(O[Si](C)(C)C(C)(C)C)c(C(C)(C)C)c1)C(=O)Nc1ccc(Cl)c(NC2=NN(c3c(Cl)cc(Cl)cc3Cl)C(=O)C2)c1 (stereo not drawn) [Coupler 3],78.5 nm,539.5,,,,-0.02,-0.09,-0.04
,,,CCCCCCCCCCC(Oc1ccc(S(=O)(=O)c2ccc(O[Si](C)(C)C(C)(C)C)cc2)cc1)C(=O)Nc1ccc(Cl)c(NC2=NN(c3c(Cl)cc(Cl)cc3Cl)C(=O)C2)c1 (stereo not drawn) [Coupler 4],84.5 nm,541.5,,,,,,
soluble,soluble,insoluble,CCCCCCCCCCC(Oc1ccc(S(=O)(=O)c2ccc(O)cc2)cc1)C(=O)Nc1ccc(CCCc2n[nH]c3c(Cl)c(C)nn23)cc1 (stereo not drawn) [Coupler C-1],89.5 nm,553,,,,+0.07,+0.06,+0.05
,,,CCCCCCCCCCCCC(Oc1ccc(O)c(C(C)(C)C)c1)C(=O)Nc1ccc(Cl)c(NC2=NN(c3c(Cl)cc(Cl)cc3Cl)C(=O)C2)c1 (stereo not drawn) [Coupler C-3],82 nm,544.5,,,,-0.04,-0.09,-0.08
,,,CCCCCCCCCCC(Oc1ccc(S(=O)(=O)c2ccc(O)cc2)cc1)C(=O)Nc1ccc(Cl)c(NC2=NN(c3c(Cl)cc(Cl)cc3Cl)C(=O)C2)c1 (stereo not drawn) [Coupler C-4],92 nm,545.5,,,,,,
